Data set [1] addresses T1, CD73 protein (Homo sapiens, UniProt P21589).
T1 construct: purchased Novoprotein C446
T1 sequence (P21589 27-549): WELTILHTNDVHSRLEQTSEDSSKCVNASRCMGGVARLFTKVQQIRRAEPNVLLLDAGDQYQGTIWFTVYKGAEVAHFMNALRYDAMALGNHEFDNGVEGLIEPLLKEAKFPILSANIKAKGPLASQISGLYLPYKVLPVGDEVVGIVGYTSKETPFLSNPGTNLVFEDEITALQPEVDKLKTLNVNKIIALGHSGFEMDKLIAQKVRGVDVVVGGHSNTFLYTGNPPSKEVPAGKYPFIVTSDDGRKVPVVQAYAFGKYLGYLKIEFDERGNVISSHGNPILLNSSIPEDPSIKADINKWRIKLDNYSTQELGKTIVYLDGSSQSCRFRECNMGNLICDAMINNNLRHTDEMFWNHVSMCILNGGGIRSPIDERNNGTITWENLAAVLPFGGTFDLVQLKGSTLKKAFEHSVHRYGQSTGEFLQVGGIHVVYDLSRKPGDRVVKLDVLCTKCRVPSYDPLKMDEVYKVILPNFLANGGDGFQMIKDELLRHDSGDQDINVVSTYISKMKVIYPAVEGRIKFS
Put plainly: CD73 enzyme inhibition assay (Malachite Green Phosphate Detection Kit). The note with it: for IC50: Tris-HCl pH 7.3, read-out: Potency (IC50 class) in CD73 enzyme assay; for inhibitory activity in the CD73 enzyme assay: result in words. Type of data set: biochemical. The procedure:
To evaluate the inhibitory effect of selected compounds on CD73, Malachite Green Phosphate Detection Kit (R&D, Cat #DY996) was used. Briefly, compounds were dissolved and diluted to the desired concentration using phosphate-free buffer (Tris-HCl, pH 7.3). 25 μL of the compound solution was added to an equal volume of CD73 protein solution (2×concentration, 0.5 μg/mL, Novoprotein, Cat #C446), followed by a 5-minute incubation at room temperature. 10 μL of Malachite Green Reagent A was added to each well, mixed thoroughly and incubated for 10 minutes at room temperature. 10 μL of Malachite Green Reagent B was then added to each well, mixed thoroughly and incubated for 20 minutes at room temperature. Finally, the optical density of each well was determined using a microplate reader set to 620 nm.

A short description of data set [2]: Pharmacokinetic evaluation in ICR mice after intravenous injection. Type of data set: in vivo. The note with it: mouse; ICR male mice, 1.0 mg/kg intravenous, plasma. The procedure:
A test compound (1.0 mg/kg) was administered to fasted ICR male mice via intravenous injection, and blood samples were collected at time points of 0.08, 0.25, 0.5, 1, 2, 4, 6, 8 and 24 h after the administration. Plasma sample was separated by centrifugation (8000 rpm) and stored at −80° C. until the sample was analyzed. Concentrations of the test compound in the plasma were determined by HPLC-MS/MS: the plasma was dispensed into appropriate tubes containing internal standard and methanol or acetonitrile. The tubes were mixed vigorously for 3 minutes to achieve deproteinization and then centrifuged at 8000 rpm for 5 minutes. The supernatant was transferred to an autosampler vial, injected into the chromatographic system, and quantified on MS/MS detector. Pharmacokinetic parameters including AUC0-4, Cmax, Tmax, t1/2, MRT, Cl and Vd were calculated using WinNonlin 6.3 software. Table 3 summarizes key PK parameters for test compounds (AUC(0-t): the area under the curve from time 0 to time t; AUC(0-∞): the area under the curve from time 0 to infinity; t1/2: Half-life; CL: clearance; C0: the concentration of drug in blood if the drug molecules enter the circulation and are distributed immediately (i.e., at time 0)).

The target in data set [3] is T2, Recombinant human 5′-nucleotidase (hCD73) (Homo sapiens, UniProt P21589).
T2 sequence (P21589 27-549): T1 sequence (P21589 27-549)
Nature of the data set: CD73 enzyme inhibition assay (recombinant hCD73, AMP substrate, phosphate detection). Particulars: 37° C. 20 min, absorbance 635 nm. It counts as biochemical. The procedure:
Test compound solution preparation: Stock solution of a test compound was prepared in DMSO at 10 mM concentration. A series of preset 10-concentration solutions of a test compound were prepared by diluting the stock solution in 5-fold gradient dilution with DMSO.
Assay buffer (1×): […] Tris, 25 mM NaCl, 1 mM MgCl2, pH 7.5, 0.005% Tween-20 (freshly prepared, and ready for use).
An aliquot of 0.25 μL of compound solution or DMSO (blank control) was added to each test well of a micro well plate. Recombinant human 5′-nucleotidase (hCD73) was diluted to 1 nM in assay buffer; and an aliquot of 25 μL hCD73 (1 nM) solution was added to the corresponding wells of the plate. The contents of the well were well-mixed, and the plate was covered with sealing film, centrifuged at 1000 rpm for 30 sec., followed by incubation at room temperature for 15 min. AMP, the substrate, was diluted to 60 μM concentration in the assay buffer. To each reaction well was added 25 μL of AMP solution. After mixing well, the plate was covered with sealing film, centrifuged at 1000 rpm for 30 sec., and incubated at 37° C. for 20 min. The absorbance signal (end point) was measured on SPARK plate reader at 635 nm (See PiColorLock™ Gold Phosphate Detection System (Abcam) test kit for reference).
The reaction wells containing CD73 enzyme, substrate AMP and DMSO (no compound) were used as positive control, and the reaction wells containing substrate AMP and DMSO but no CD73 enzyme were used as negative control. The percent (%) inhibition at each concentration of compound was calculated based on and relative to the signal in the High and Low control wells contained within each assay plate. The High control wells were considered as 0% inhibition, and the low control wells, which didn't contain any compound but rather DMSO (final concentration=0.5%), as 100% inhibition. IC50 values were obtained using GraphPad Prism software.

Structures are written as SMILES.

What is called IC50 is the midpoint of a concentration-inhibition curve. Regarding `O=P(O)(O)CP(=O)(O)OC[C@H]1O[C@@H](n2cnc3c(NCc4ccccc4)nc(Cl)nc32)C(O)C1O` (stereo partly drawn) [Compound 1], in data set [1], the IC50 is < 10 nM.

For `O=P(O)(O)CP(=O)(O)OC[C@H]1O[C@@H](n2cnc3c(NCc4cccc5ccccc45)nc(Cl)nc32)C(O)C1O` (stereo partly drawn) [Compound 6], in data set [1], the IC50 is < 10 nM.

For the compound `O=P(O)(O)CP(=O)(O)OC[C@H]1O[C@@H](n2cnc3c(NCc4ccc5ccccc5c4)nc(Cl)nc32)C(O)C1O` (stereo partly drawn) [Compound 7], in data set [1], the IC50 was < 10 nM.

Turning to `C[C@]12C[C@@H]3C[C@](C)(C1)C[C@@](Nc1nc(Cl)nc4c1ncn4[C@@H]1O[C@H](COP(=O)(O)CP(=O)(O)O)C(O)C1O)(C3)C2` (stereo partly drawn) [Compound 9], in data set [1], the IC50 is < 10 nM.

On to `CCCCCCCCCCCCOC(=O)Nc1nc(Cl)nc2c1ncn2[C@@H]1O[C@H](COP(=O)(O)CP(=O)(O)O)C(O)C1O` (stereo partly drawn) [Compound 15], for which the IC50 in data set [1] was < 10 nM.

As for `O=C(CC12CC3CC(CC(C3)C1)C2)Nc1nc(Cl)nc2c1ncn2[C@@H]1O[C@H](COP(=O)(O)CP(=O)(O)O)C(O)C1O` (stereo partly drawn) [Compound 16], the IC50 in data set [1] was 10 to 100 nM.

For the compound `CCCCCCCCCCCCN(CCCCCCCCCCCC)c1nc(Cl)nc2c1ncn2[C@@H]1O[C@H](COP(=O)(O)CP(=O)(O)O)C(O)C1O` (stereo partly drawn) [Compound 19], the IC50 in data set [1] was > 100 nM.

With `O=P(O)(O)CP(=O)(O)OC[C@H]1O[C@@H](n2cnc3c(NC45CC6CC(CC(C6)C4)C5)nc(Cl)nc32)C(O)C1O` (stereo partly drawn) [Compound 22], the IC50 in data set [1] was < 10 nM.

Take `CC1(C)[C@@H]2CC[C@@]1(C)C(OC(=O)Nc1nc(Cl)nc3c1ncn3[C@@H]1O[C@H](COP(=O)(O)CP(=O)(O)O)C(O)C1O)C2` (stereo partly drawn) [Compound 23]: the IC50 in data set [1] was in the range of 10 to 100 nM.

With `O=P(O)(O)CP(=O)(O)OC[C@H]1O[C@@H](n2cnc3c(N4CCC5(CCCCC5)C4)nc(Cl)nc32)C(O)C1O` (stereo partly drawn) [Compound 31], in data set [1], the IC50 is < 10 nM.

Consider `O=P(O)(O)CP(=O)(O)OC[C@H]1O[C@@H](n2cnc3c(N4C5CCC4CC(O)C5)nc(Cl)nc32)C(O)C1O` (stereo partly drawn) [Compound 51], for which the IC50 in data set [1] was < 10 nM.

In general, clearance refers to the rate of elimination divided by the concentration. The low end stands for a low capacity for elimination, the high end for a high capacity for elimination. In turn, `C[C@H](Nc1cc(Cl)nc2c1cnn2[C@@H]1O[C@H](COP(=O)(O)CP(=O)(O)O)[C@@H](O)[C@H]1O)c1ccccc1F` [Compound a, AB680, reference compound] gave a clearance in data set [2] of 0.7 mL/min/kg.

Regarding `O=P(O)(O)CP(=O)(O)OC[C@H]1O[C@@H](n2cnc3c(N4CC(c5ccccc5)c5ccccc54)nc(Cl)nc32)C(O)C1O` (stereo partly drawn) [Compound d-38], in data set [3], the IC50 came out at 1.92 nM.

With `O=P(O)(O)CP(=O)(O)CC[C@H]1O[C@@H](n2cnc3c(NCc4ccccc4)nc(Cl)nc32)C(O)C1O` (stereo partly drawn) [a-1], the “inhibitory activity in the CD73 enzyme assay” value (from here on “inhibitory activity”) in data set [1] is “showed inhibitory activity”.

In the case of `C[C@]12C[C@@H]3C[C@](C)(C1)C[C@@](Nc1nc(Cl)nc4c1ncn4[C@@H]1O[C@H](CCP(=O)(O)CP(=O)(O)O)C(O)C1O)(C3)C2` (stereo partly drawn) [a-9], the “inhibitory activity” value in data set [1] was “showed inhibitory activity”.

`O=P(O)(O)CP(=O)(O)CC[C@H]1O[C@@H](n2cnc3c(N4CCC5(CCCCC5)C4)nc(Cl)nc32)C(O)C1O` (stereo partly drawn) [a-31]: the “inhibitory activity” value in data set [1] is listed as “showed inhibitory activity”.

Compound `O=P(O)(O)CP(=O)(O)OC[C@H]1O[C@@H](n2cnc3c(N4CCC5(CCCc6ccccc65)C4)nc(Cl)nc32)[C@@H](O)C1O` (stereo partly drawn) [d-6] gave a clearance in data set [2] of 2.55 mL/min/kg.

For `O=P(O)(O)CP(=O)(O)OC[C@H]1O[C@@H](n2cnc3c(N4CC5(CCCCC5)c5ccccc54)nc(Cl)nc32)[C@@H](O)C1O` (stereo partly drawn) [d-7], the clearance in data set [2] was 0.0833 mL/min/kg. Moreover, the IC50 in data set [3] worked out at 1.8 nM.

Take `O=P(O)(O)CP(=O)(O)OC[C@H]1O[C@@H](n2cnc3c(N4CCC5(CCc6ccccc65)C4)nc(Cl)nc32)C(O)C1O` (stereo partly drawn) [d-8]: the IC50 in data set [3] was found to be 0.75 nM.

`O=P(O)(O)CP(=O)(O)OC[C@H]1O[C@@H](n2cnc3c(N4CC5(Cc6ccccc6C5)C4)nc(Cl)nc32)[C@@H](O)C1O` (stereo partly drawn) [d-9]: the clearance in data set [2] is 0.75 mL/min/kg. Also, the IC50 in data set [3] worked out at 0.73 nM.

`O=P(O)(O)CP(=O)(O)OC[C@H]1O[C@@H](n2cnc3c(N4CC5(CCCc6ccccc65)C4)nc(Cl)nc32)[C@@H](O)C1O` (stereo partly drawn) [d-12] showed a clearance in data set [2] of 1.7 mL/min/kg. Also, the IC50 in data set [3] amounted to 0.4 nM.

In the case of `O=P(O)(O)CP(=O)(O)OC[C@H]1O[C@@H](n2cnc3c(N4CC5(CCCC5)c5ccccc54)nc(Cl)nc32)[C@@H](O)C1O` (stereo partly drawn) [d-13], the clearance in data set [2] is 0.05 mL/min/kg. Moreover, the IC50 in data set [3] came out at 1.5 nM.

Take `O=P(O)(O)CP(=O)(O)OC[C@H]1O[C@@H](n2cnc3c(N4CC5(CCC5)c5ccccc54)nc(Cl)nc32)[C@@H](O)C1O` (stereo partly drawn) [d-20]: the clearance in data set [2] was 0.133 mL/min/kg. Moreover, the IC50 in data set [3] was found to be 1.29 nM.

In turn, `O=P(O)(O)CP(=O)(O)OC[C@H]1O[C@@H](n2cnc3c(N4CCC5(CC4)Cc4ccccc4C5)nc(Cl)nc32)[C@@H](O)C1O` (stereo partly drawn) [d-21] gave a clearance in data set [2] of 2.28 mL/min/kg. In addition, the IC50 in data set [3] amounted to 1.42 nM.

As to `O=P(O)(O)CP(=O)(O)OC[C@H]1O[C@@H](n2cnc3c(N4CC5(CCCCCC5)c5ccccc54)nc(Cl)nc32)[C@@H](O)C1O` (stereo partly drawn) [d-22], the clearance in data set [2] was 0.1 mL/min/kg.

`O=P(O)(O)CP(=O)(O)OC[C@H]1O[C@@H](n2cnc3c(N4CC(c5ccccc5)(c5ccccc5)C4)nc(Cl)nc32)C(O)C1O` (stereo partly drawn) [d-35]: the IC50 in data set [3] is 1.39 nM.

Consider `O=P(O)(O)CP(=O)(O)OC[C@H]1O[C@@H](n2cnc3c(N4CC(c5ccccc5)C(c5ccccc5)C4)nc(Cl)nc32)C(O)C1O` (stereo partly drawn) [d-36], for which the IC50 in data set [3] was found to be 1.86 nM.
